Patent US20220227722A1, “SPHINGOSINE 1 PHOSPHATE RECEPTOR MODULATOR” (RECEPTOS LLC, priority 2019, published 2022)
pEC50: −log10 of the molar value. Read-outs that look alike come from different tables or passages of the source.

Columns and labels:
[1] = target: T1, S1P3R (Homo sapiens, UniProt Q99500); assay: [35S]GTPγS binding to membranes, S1P3R; type: biochemical
T1 construct: expressed in transfected cells; membranes
Procedure: (§1) S1P1R is a GPCR that couples exclusively to the inhibitory G protein (Gαi), decreasing adenylate cyclase activity and lowering cyclic adenosine monophosphate (cAMP levels) in the cell. The potency of Compound 1 was tested against the S1P1 receptor (S1P1R) and related family members. The potency and S1P receptor selectivity were measured using two independent in vitro assays, [^35S]guanosine-5′-O-(3-thio)triphosphate ([^35S]GTPγS) and β-lactamase gene expression and activity. The GTPγS binding to membranes prepared from stable mammalian cells lines expressing recombinant human S1P receptors 1-5 (S1P1R-S1P5R) was used to pharmacologically characterize ligand interaction with the S1P receptor family members. […] Membrane-bead complexes were then pelleted by centrifugation before the bound radioactivity was quantified with a MicroBeta2® microplate scintillation counter. The radioactive counts relative to DMSO vehicle were calculated and the half maximal effective concentration (EC50) was determined using non-linear regression.

[2] = target: T2, S1P5R (Homo sapiens, UniProt Q9H228); assay: [35S]GTPγS binding to membranes, S1P5R; type: biochemical
T2 construct: expressed in transfected cells; membranes
Procedure: as §1

[3] = Clinical PK, Phase 1 study of ozanimod HCl in relapsing remitting multiple sclerosis subjects; type: in vivo, human; conditions: for Tmax: read-out: Median Tmax; for % of total agonist exposure at steady state: total agonist = sum of ozanimod and active metabolites, ozanimod HCl PO QD
From the text: Serial blood PK samples were collected on Days 1 and the last day of dosing.

[4] = target: T3, S1P4R (Homo sapiens, UniProt O95977); assay: [35S]GTPγS binding to membranes, S1P4R; type: biochemical
T3 construct: expressed in transfected cells; membranes
T3 sequence (O95977 1-384): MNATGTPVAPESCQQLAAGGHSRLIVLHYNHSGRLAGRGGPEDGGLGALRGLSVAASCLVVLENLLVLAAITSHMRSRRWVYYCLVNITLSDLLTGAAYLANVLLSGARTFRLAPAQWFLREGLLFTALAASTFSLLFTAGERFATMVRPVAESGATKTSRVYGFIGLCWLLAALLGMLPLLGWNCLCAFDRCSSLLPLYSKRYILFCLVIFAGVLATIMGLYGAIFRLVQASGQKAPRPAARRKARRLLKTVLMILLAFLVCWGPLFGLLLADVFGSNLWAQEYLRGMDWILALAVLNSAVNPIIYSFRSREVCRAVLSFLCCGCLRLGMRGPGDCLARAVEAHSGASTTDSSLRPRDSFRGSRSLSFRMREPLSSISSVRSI
Procedure: as §1

[5] = target: T1, S1P3R; assay: β-lactamase gene expression and activity whole-cell assay, S1P3R; type: cell-based; conditions: stable cells expressing recombinant human S1P3R
Procedure: (§2) Up-regulation of β-lactamase gene expression and activity were used as a whole-cell functional readout of S1P receptor activation. […] The respective β-lactamase activity was then determined using a fluorescence resonance energy transfer (FRET)-based β-lactamase fluorescent substrate (LiveBLAzer™-FRET B/G Loading Kit CCF4-AM) according to manufacturer's instructions, and incubated with cells for 2 hours at RT. Plates were read using a SpectraMax M5 Multi-Mode microplate reader and the relative response to DMSO vehicle calculated for the EC50 determination using non-linear regression.

[6] = test system: circulating lymphocytes; assay: Assessment of circulating lymphocyte counts after single oral dose; type: in vivo, Sprague Dawley rats; conditions: rat, 2 mg/kg oral single dose
Procedure: Whole blood samples were collected from acclimated, conscious male Sprague Dawley rats in the fed state using percutaneous jugular vein puncture at pre-dose and 3, 6 and 24 hours after single oral dose administration of vehicle or test compound. Blood samples were collected into K2EDTA tubes, thoroughly mixed and stored on wet ice until analyzed. Circulating lymphocyte counts were assessed by two methods from individual aliquots of the same samples. Total lymphocyte counts were determined in a standard hematology panel on a calibrated analyzer (Test #416; Horiba Medical ABX Pentra XL 80) and by in-house flow cytometry using fluorescent-activated cell sorting (FACS) analysis to determine the number of CD4+, CD8+ and B220+ lymphocytes (ThermoFisher Attune NxT flow cytometer). Data are expressed as follows for absolute lymphocyte counts (hematology analyzer), the individual lymphocyte subtypes (CD4+, CD8+ and B220+) and the sum of the individual lymphocyte subtypes (flow cytometry). • Number of lymphocytes per μL whole blood. • Percentage change relative to each group's pre-dose baseline at each time point
Whole blood samples (K2EDTA) were analyzed on the flow cytometer (ThermoFisher Attune NxT) using rat antibodies, as detailed below. The baseline and 3 hour post-dose samples were analyzed on the same day as collection. The 6 hour post-dose samples were analyzed after overnight storage at 4° C. (on wet ice in a 2-8° C. fridge) and on the same day as the 24 hour post-dose samples were collected and analyzed.
The oral dose level of 2 mg/kg of Compound 1 administered to the animals was intended to induce a significant reduction (˜≥60%) in the number of circulating lymphocyte. Following acclimation, blood samples were serially collected from the jugular vein of conscious Sprague Dawley rats prior to dosing and 3 hours, 6 and 24 hours after administration. The absolute number of circulating lymphocytes was quantified in whole blood samples using a hematology analyzer and the CD4^+, CD8^+ and B220^+ lymphocyte subtypes by flow cytometry. The plasma concentrations for each compound were quantified with liquid chromatography, tandem mass spectrometry.

[7] = Compound 1 single dose pharmacokinetics in the rat; type: in vivo; conditions: Sprague-Dawley, plasma; for AUC(0-t): read-out: AUC0-24; for half-life: read-out: t½ (converted)
Procedure: Plasma samples (50 μL) were aliquoted into a 96 deep-well polypropylene plate (2 mL/well) and 5 μL of dimethyl sulfoxide (DMSO) was added. Samples expected to be above the upper limit of quantitation (ULOQ) were diluted with plasma. Standard curves were prepared by mixing 5 μL of the test compound in DMSO at 10 times the concentration which was added to 50 μL of plasma in a 96 deep-well polypropylene plate. For example, for a 0.3 μM standard, the 10×DMSO concentration of the test compound was 3 μM. Standard curves were prepared using analytical standards of Compound 1. Protein was precipitated from study samples and standards by the addition of 150 μL of acetonitrile. The plate was vortexed to ensure complete precipitation of protein. The precipitated protein was pelleted by centrifugation at 4,000 rpm for 10 min at 20° C. and the clear supernatant was transferred to a clean 96-well plate and centrifuged again under the same conditions to pellet any transferred solid material.
Samples (7 μL) were introduced to a Shimadzu HPLC (LC-20ADXR) with a SIL-30ACMP autosampler (Shimadzu). The mobile phase was a gradient using 0.1% formic acid in water and 0.1% formic acid in acetonitrile. The column used was a Phenomenex Kinetic C18 100 A 2.6μ30×3 mm (PN 946975-906). The CTO-20AC column oven (Shimadzu) was set at 40° C. Prepared samples were usually analyzed in order of lowest to highest concentration for standards and reverse order of time-points for study samples. Study samples were bracketed by full standard curves. Typically at least 6 standards were used for quantitation with a percent accuracy of +/−15% for all standards except at the lower level of quantitation (LLOQ) where a percent accuracy of +/−20% was allowed.
An ABSciex Instruments Triple Quad 5500 Mass Spectrometer (Analyst 1.6.3) was used for detection in the MRM mode. Ionization was achieved by positive or negative electrospray with a source temperature of 600° C. Negative and positive mode analysis was performed in the same injection. Standard samples were usually analyzed in order of lowest to highest concentration. Typically at least six standards were used for quantification with a percent accuracy of +/−15% for all standards except at the LLOQ where a percent accuracy of +/−20% was allowable. Study samples were analyzed in reverse chronological order bracketed with bracketing standard curves.
Blood concentration versus time data are analyzed using non-compartmental methods (WinNonlin version 5.2; model 200 for oral dosing and model 202 for intravenous infusion). Absolute oral bioavailability (%) is calculated using the following expression: (Oral AUC×IV Dose)/(IV AUC×Oral Dose)×100.
Compound 1 was administered in a formulation of 10% volume/volume (v/v) DMSO and 5% v/v Tween 20 in water by IV administration (10 mL/kg) or 0.5% weight/volume (w/v) CMC in water by oral gavage (10 mL/kg). Animals received 0.2 mg/kg as the IV dose or 2 mg/kg/day orally as a single administration. Blood samples were collected at 1, 5, and 30 minutes, 2, 4, 8, 10, 24, […], 48, and 72 hours after IV dosing and 1, 2, 3, 4, 6, 8, 10, 12, 24, 48, and 72 hours following oral dosing. Blood was collected into tubes containing the anti-coagulant K2EDTA and processed to plasma. Plasma concentrations for each analyte were determined using a qualified LC-MS/MS method.

[8] = target: T3, S1P4R; assay: β-lactamase gene expression and activity whole-cell assay, S1P4R; type: cell-based; conditions: stable cells expressing recombinant human S1P4R
Procedure: as §2

[9] = target: T4, S1P1R (Homo sapiens, UniProt P21453); assay: [35S]GTPγS binding to membranes, S1P1R; type: biochemical
T4 construct: expressed in transfected cells; membranes
Procedure: as §1

[10] = target: T2, S1P5R; assay: β-lactamase gene expression and activity whole-cell assay, S1P5R; type: cell-based
Procedure: as §2

[11] = target: T5, S1P2R (Homo sapiens, UniProt O95136); assay: [35S]GTPγS binding to membranes, S1P2R; type: biochemical
T5 construct: expressed in transfected cells; membranes
Procedure: as §1

[12] = target: T4, S1P1R; assay: β-lactamase gene expression and activity whole-cell assay, S1P1R; type: cell-based; conditions: stable cells expressing recombinant human S1P1R
Procedure: as §2

[13] = Table 4 comparative selectivity, agonist values, read-out: EC50 S1P3
[14] = Table 4 comparative selectivity, agonist values, read-out: EC50 S1P4
[15] = Table 4 comparative selectivity, agonist values, read-out: EC50 S1P2

T4 sequence (P21453 whole entry): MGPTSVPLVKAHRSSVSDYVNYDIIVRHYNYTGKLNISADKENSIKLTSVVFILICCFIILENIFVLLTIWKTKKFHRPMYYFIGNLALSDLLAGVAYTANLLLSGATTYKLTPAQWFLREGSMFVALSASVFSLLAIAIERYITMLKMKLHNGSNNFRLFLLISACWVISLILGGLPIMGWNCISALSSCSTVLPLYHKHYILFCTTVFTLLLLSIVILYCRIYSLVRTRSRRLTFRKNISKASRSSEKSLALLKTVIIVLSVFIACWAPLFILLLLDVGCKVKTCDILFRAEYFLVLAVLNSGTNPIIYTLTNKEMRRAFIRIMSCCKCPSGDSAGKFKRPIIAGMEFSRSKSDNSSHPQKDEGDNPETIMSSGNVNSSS
T2 sequence (Q9H228 whole entry): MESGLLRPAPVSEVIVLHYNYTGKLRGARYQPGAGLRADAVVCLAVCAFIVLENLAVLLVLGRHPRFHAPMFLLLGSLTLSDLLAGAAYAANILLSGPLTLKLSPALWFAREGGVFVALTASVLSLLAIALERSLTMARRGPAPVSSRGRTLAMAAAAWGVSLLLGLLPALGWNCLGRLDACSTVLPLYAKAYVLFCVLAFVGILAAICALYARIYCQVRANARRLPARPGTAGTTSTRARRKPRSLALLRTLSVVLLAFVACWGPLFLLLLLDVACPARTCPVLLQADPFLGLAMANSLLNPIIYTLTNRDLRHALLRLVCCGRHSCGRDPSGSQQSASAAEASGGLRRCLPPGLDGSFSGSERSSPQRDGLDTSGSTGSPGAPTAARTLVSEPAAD
T5 sequence (O95136 whole entry): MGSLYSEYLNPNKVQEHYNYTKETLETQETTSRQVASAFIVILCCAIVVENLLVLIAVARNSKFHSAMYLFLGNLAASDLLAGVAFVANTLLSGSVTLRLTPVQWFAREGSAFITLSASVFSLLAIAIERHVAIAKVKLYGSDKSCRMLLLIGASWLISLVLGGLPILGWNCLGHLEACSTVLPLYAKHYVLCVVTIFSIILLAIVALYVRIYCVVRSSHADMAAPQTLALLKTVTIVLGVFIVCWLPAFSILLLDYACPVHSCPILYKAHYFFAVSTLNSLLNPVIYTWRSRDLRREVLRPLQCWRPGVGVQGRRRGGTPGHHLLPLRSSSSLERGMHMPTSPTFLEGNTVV
T1 sequence (Q99500 whole entry): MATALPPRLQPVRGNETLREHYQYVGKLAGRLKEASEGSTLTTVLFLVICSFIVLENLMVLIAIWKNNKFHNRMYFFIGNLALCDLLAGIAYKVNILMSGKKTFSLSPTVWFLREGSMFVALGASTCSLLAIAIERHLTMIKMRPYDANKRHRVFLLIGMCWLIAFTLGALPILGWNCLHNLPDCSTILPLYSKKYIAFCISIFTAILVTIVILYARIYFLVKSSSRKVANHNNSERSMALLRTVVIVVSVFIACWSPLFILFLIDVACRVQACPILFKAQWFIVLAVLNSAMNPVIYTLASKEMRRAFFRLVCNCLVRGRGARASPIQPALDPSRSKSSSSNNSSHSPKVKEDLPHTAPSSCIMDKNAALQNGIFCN

With `CC(C)Oc1ccc(-c2nc(-c3cccc4c3CCC4=O)no2)cc1C#N` [Compound 1, 2-isopropoxy-5-(3-(1-oxo-2,3-dihydro-1H-inden-4-yl)-1,2,4-oxadiazol-5-yl)benzonitrile] the pEC50 [1, 13] was < 5.30, the pEC50 ([1]; recombinant human S1P3R membranes, read-out: EC50 S1P3R GTPγS) was < 5.30 and the “selectivity for S1P5R over S1P2R, S1P3R and S1P4R” value ([2]; GTPγS readout) was “greater than 200 fold”. For the same compound, the pEC50 ([2]; recombinant human S1P5R membranes, read-out: EC50 S1P5R GTPγS) was 7.75, the “Peak-to-trough ratio (at steady state)” value ([3]; RMS subjects, ozanimod HCl 0.5 or 1 mg PO QD, steady state) was 1.3- to 1.6-fold and the Tmax ([3]; human, blood, po) was 6 to 10 h. For the same compound, the “% of total agonist exposure at steady state” value [3] was 85% to 93%, the pEC50 [4, 14] was < 5.00 and the pEC50 ([4]; recombinant human S1P4R membranes, read-out: EC50 S1P4R GTPγS) was < 5.00. For the same compound, the pEC50 [5] was < 5.00, the “time of maximum effect on lymphocyte counts” value [6] was “by six hours after administration” and the “effect on lymphocyte counts at the 24 hour time-point” value ([6]; 24 hours) was “without significant effect”. The “reduction of B220+ lymphocyte population relative to pre-dose” value ([6]; flow cytometry) was 35%, the “reduction of CD4+ lymphocyte population relative to pre-dose” value ([6]; flow cytometry) was 68% and the “reduction of CD8+ lymphocyte population relative to pre-dose” value ([6]; flow cytometry) was 62%. The “reduction of total circulating lymphocyte counts (total number of CD4+, CD8+ and B220+) relative to pre-dose” value ([6]; flow cytometry) was 52%, the “fewer lymphocytes relative to pre-dose values” ([6]; hematology analyzer) was 44% and the Cmax ([7]; 0.2 mg/kg IV, single dose) was 743 nM. The Tmax ([7]; 0.2 mg/kg IV, single dose) was 0.02 h, the AUC(0-t) ([7]; 0.2 mg/kg IV, single dose) was 0.386 µM·h and the half-life ([7]; 0.2 mg/kg IV, single dose) was 1.62 h. For the same compound, the Cmax ([7]; 2.0 mg/kg oral, single dose) was 14.8 nM, the Tmax ([7]; 2.0 mg/kg oral, single dose) was 3 h and the Vd/F ([7]; 2.0 mg/kg oral, single dose) was 292 L/kg. It also gave an AUC(0-t) ([7]; 2.0 mg/kg oral, single dose) of 0.0954 µM·h, a half-life ([7]; 2.0 mg/kg oral, single dose) of 3.73 h and a bioavailability ([7]; 2.0 mg/kg oral vs 0.2 mg/kg IV) of 2.5%. For the same compound, the pEC50 [8] was < 5.00, the “selectivity for S1P1R over S1P2R, S1P3R and S1P4R” value ([9]; [35S]GTPγS binding activity readout) was “greater than 1000 fold” and the pEC50 ([9]; recombinant human S1P1R membranes) was 8.68. For the same compound, the pEC50 ([10]; stable cells expressing recombinant human S1P5R) was 8.16, the “selectivity for S1P5R over S1P2R, S1P3R and S1P4R” value ([10]; β-lactamase readout) was “greater than 200 fold” and the pEC50 [11, 15] was < 5.00. For the same compound, the pEC50 ([11]; recombinant human S1P2R membranes, read-out: EC50 S1P2R GTPγS) was < 5.00 and the pEC50 [12] was 10.40.

With `CC(C)Oc1ccc(-c2nc(-c3cccc4c3CC[C@@H]4NCCO)no2)cc1C#N` [Ozanimod, reference compound] the pEC50 [1, 13] was < 5.30, the pEC50 ([2]; Table 4 comparative selectivity, agonist values, read-out: EC50 S1P5) was 8.29 and the half-life ([3]; human, blood, po, 1 mg, read-out: Mean t1/2 (at steady state)) was 15 to 23 h. For the same compound, the Tmax ([3]; human, blood, po) was 6 to 8 h, the “% of total agonist exposure at steady state” value [3] was “Ozanimod: 3% to 6%” and the pEC50 [4, 14] was 5.69. The pEC50 [11, 15] was < 5.00.
